Test [1] has as its system SARS-CoV2 in Calu-3 cells. It counts as cell-based.
Test [2] deals with SARS-CoV2 infected Vero-E6 cells and human lung epithelial cells (Calu-3). It is filed as cell-based. The arrangement: inhibiting cytopathic effect (% of cells): dose or concentration left out as unconfirmed. The conditions noted are these: for synergy with remdesivir (BLISS independence model, synergyfinder): in combination with remdesivir, synergy score >10 signifies synergy; for efficacy of the agent alone, in words: single agent.

Nine compounds from patent publication US20230285435A1, “COMPOSITIONS AND METHODS FOR TREATING VIRAL INFECTIONS” (priority 2020, published 2023) can be followed below.

Structures can show the parent of a compound that is named as a salt.

On to `COC(=O)N[C@H](C(=O)N1CCC[C@H]1c1nc2cc([C@H]3CC[C@H](c4cc5nc([C@@H]6CCCN6C(=O)[C@@H](NC(=O)OC)[C@@H](C)OC)[nH]c5cc4F)N3c3cc(F)c(N4CCC(c5ccc(F)cc5)CC4)c(F)c3)c(F)cc2[nH]1)[C@@H](C)OC` [Pibrentasvir], for which, in test [1], the “synergy in combination with remdesivir” value is “synergy”.

As for `COC(=O)N[C@H](C(=O)N1CCC[C@H]1c1ncc(-c2ccc(-c3ccc(-c4cnc([C@@H]5CCCN5C(=O)[C@@H](NC(=O)OC)C(C)C)[nH]4)cc3)cc2)[nH]1)C(C)C` [Daclatasvir dihydrochloride], the “synergy in combination with remdesivir” value in test [1] was “synergy”.

For `COC[C@H]1C[C@@H](c2nc(-c3ccc4c(c3)COc3cc5c(ccc6nc([C@@H]7CC[C@H](C)N7C(=O)[C@@H](NC(=O)OC)C(C)C)[nH]c65)cc3-4)c[nH]2)N(C(=O)[C@H](NC(=O)OC)c2ccccc2)C1` [Velpatasvir], in test [2], the “synergy with remdesivir (BLISS independence model, synergyfinder)” value is reported as “strongest” and the “efficacy of the agent alone, in words” value is given as “modest efficacy”. In addition, in test [2] (velpatasvir alone (so in the source)), the “inhibiting cytopathic effect (% of cells)” value amounted to 16%.

For the compound `COC(=O)N[C@H](C(=O)N1CC2(CC2)C[C@H]1c1ncc(-c2ccc3c(c2)C(F)(F)c2cc(-c4ccc5nc(C6[C@H]7CC[C@H](C7)N6C(=O)[C@@H](NC(=O)OC)C(C)C)[nH]c5c4)ccc2-3)[nH]1)C(C)C` (stereo partly drawn) [Ledipasvir acetone], the “synergy in combination with remdesivir” value in test [1] is recorded as “synergy”.

In the case of `COc1c(C)c2c(c(O)c1C/C=C(\C)CCC(=O)O)C(=O)OC2` [Mycophenolic acid], in test [1], the “synergy in combination with remdesivir” value is reported as “synergy”.

Regarding `CCC(CC)COC(=O)[C@H](C)N[P@](=O)(OC[C@H]1O[C@@](C#N)(c2ccc3c(N)ncnn23)[C@H](O)[C@@H]1O)Oc1ccccc1` [remdesivir], the “preventing a virus-caused pathology (% of cells)” value in test [2] (300 nM remdesivir alone) is 7%. Moreover, in test [2], the “efficacy of the agent alone, in words” value was “only active at high uM concentrations”.

Regarding `COC(=O)N[C@H](C(=O)N1CC2(CC2)C[C@H]1c1ncc(-c2ccc3c(c2)C(F)(F)c2cc(-c4ccc5nc([C@@H]6[C@H]7CC[C@H](C7)N6C(=O)[C@@H](NC(=O)OC)C(C)C)[nH]c5c4)ccc2-3)[nH]1)C(C)C` [Ledipasvir], the “synergy in combination with remdesivir” value in test [1] is on record as “synergy”.

Regarding Elbasvir, in test [2], the “synergy with remdesivir (BLISS independence model, synergyfinder)” value was “synergistic”.

As for `COC(=O)N[C@H](C(=O)N1CCC[C@H]1C(=O)Nc1ccc([C@@H]2CC[C@@H](c3ccc(NC(=O)[C@@H]4CCCN4C(=O)[C@@H](NC(=O)OC)C(C)C)cc3)N2c2ccc(C(C)(C)C)cc2)cc1)C(C)C` [Ombitasvir], the “synergy in combination with remdesivir” value in test [1] was “synergy”.
